{
  "source": "patent US20210330756A1",
  "about": "“Acetylation of Miro1” (University of South Carolina, priority 2020, published 2021)",
  "key": {"[1]": {"system": "distal axons and growth cones of DRG neurons", "test": "CALI of Mito-KR to ablate mitochondria in distal axons of DRG cultures", "format": "cell-based, rat", "source_text": "For this, we turned to chromophore-assisted light inactivation (CALI) to ablate mitochondria from distal axons of DRG cultures expressing mitochondrial-targeted Killer Red (Mito-KR) protein. CALI of KR protein generates reactive oxygen species (ROS) to ˜1,000-fold higher than the fluorescent emission eGFP generates (Sano et al., 2014). Increased ROS production upon CALI of Mito-KR protein leads to mitochondrial damage and ablation of mitochondrial function, including the axonal mitochondria targeted in our experiments (Shibuya and Tsujimoto, 2012; Spillane et al., 2013).\nFor mitochondrial ablation by CALI, DRG cultures expressing Mito-KR and BFP for 48 h were imaged with the same confocal microscope. Mito-KR was activated with an argon laser at 514 nm continuously for 30 s until there was no detectable signal (100% laser power). After activation, 50 μm of the distal axon shaft and the growth cone were imaged every 30 s over 16 min using 585- and 405-nm laser lines (13 and 15.3% power, respectively).\nVesicle trafficking was quantified using differential ImageJ Difference Tracker Plug-in (Andrews et al., 2010). 50-80-μm long unbranched axon segments at approximately the mid-region between growth cone and cell body were analyzed. Kymographs were generated using ImageJ Kymograph Plug-in. […] The distance between the growth tip at end of the post-CALI sequence and the pre-CALI baseline was measured using LAS-X software. Movement of ≥0.5 μm toward the axon shaft was counted as retracted. Fluorescence emission of the Mito-KR post-CALI was analyzed using ImageJ. For normalizing intensities across FRAP image sets, fluorescence intensity at each time point was scaled using the LAS-X FRAP module so that the residual fluorescence signal at t=0 min (post-bleach) was set at 0 and the prebleach intensity was set at 100% for each bleached ROI. For axon shaft FRAP analyses, each 50-μm bleached ROI was divided into […], and the fluorescence intensity recovery was measured as described above. […] A minimum of 75 unmyelinated axons was analyzed for each nerve. […]"}, "[2]": {"system": "axons of adult mouse DRG neurons", "test": "Microfluidic devices: exposure limited to axons of DRG neurons", "format": "cell-based", "source_text": "To determine if the effect of growth inhibitors on mitochondrial recovery was limited to distal axons, we performed FRAP on more proximal segments of the axon shaft in DRG neurons expressing Mito-GFP. For analyses of recovery, the bleached ROIs were divided into four subregions along the axon length so that we could distinguish anterograde from retrograde transport-driven Mito-GFP recovery. […] Since this effect of MAG-Fc on recovery could derive from either axons or cell body, we cultured dissociated DRGs in microfluiclic devices where we could limit exposure to MAG-Fc and TubA to the axons.\nFor primary culture of rat DRG neurons, L4-5 DRG were harvested in Hibernate-A medium (BrainBits) and then dissociated using type I collagenase (50 U/ml; Gibco) for 20 min at 37° C. and 5% CO2(Twiss et al., 2000). Dissociated ganglia were cultured in complete medium containing 10% FetalPlex animal serum complex (Gemini), 1% N1 Supplement (Sigma-Aldrich), and 10 μM cytosine-arabinoside (Sigma-Aldrich) on laminin/poly-L-lysine-coated substrates. Mouse neurons were used for cultures in microfluidic devices. For these, all cervical, thoracic, and lumbar DRGs were collected and digested with collagenase (4 mg/ml, Worthington) and dispase (1 mg/ml; Sigma-Aldrich) for 45 min at 37° C. and 5% CO2; these cells were plated in DMEM/F12 and 10% FBS at 37° C. and 5% CO2. […]"}, "[3]": {"settings": "laminin, TubA 10 μM 1 h or siRNA cotransfection, vs vehicle/siControl"}},
  "data": [
    {"smiles": "CN1CCc2c(c3ccccc3n2Cc2ccc(C(=O)NO)cc2)C1", "note": "[TubA, tubastatin]", "values": [
      {"measurement": "effect on MAG-Fc-dependent decrease in Mito-KR recovery after CALI", "setting": "[1]; MAG-Fc + 10 μM TubA", "result": "reversed"},
      {"measurement": "growth cone retraction after CALI mitochondrial ablation", "setting": "[1]; [3]", "result": "majority of the TubA-treated cultures showed no growth cone retraction"},
      {"measurement": "recovery of Mito-KR fluorescence in ROI after CALI", "setting": "[1]; [3]", "result": "significant recovery of mitochondrial fluorescence"},
      {"measurement": "effect on MAG-Fc-dependent decrease in distal axon mitochondria", "setting": "[2]; TubA in axonal compartment", "result": "prevented by TubA treatment"},
      {"measurement": "axon retraction and end bulb formation in distal axons after MAG-Fc", "setting": "[2]; TubA treatment", "result": "prevented the axon retraction and end bulb formation"}
    ]}
  ]
}
